According to PMC5218480 (PLoS ONE, 2017):

Test system: MV-4-11 cells
Experiment: Gene expression microarray analysis (Affymetrix PrimeView) and GSEA
Type: cell-based, human
Set-up: RFU PODN (11730768_x_at) / Fold change /veh PODN (11730768_x_at) / RFU LINC00158 (11744669_a_at) / Fold change /veh LINC00158 (11744669_a_at) / RFU DUSP10 (11751237_a_at) / Fold change /veh DUSP10 (11751237_a_at) / RFU ID3 (11757404_x_at) / Fold change /veh ID3 (11757404_x_at) / RFU PLEKHG5 (11737974_s_at) / Fold change /veh PLEKHG5 (11737974_s_at) / RFU LRRC4B (11730491_at) / Fold change /veh LRRC4B (11730491_at) / RFU GIMAP4 (11747438_a_at) / Fold change /veh GIMAP4 (11747438_a_at) / RFU KRT8 (11758183_x_at) / Fold change /veh KRT8 (11758183_x_at) / RFU CNN1 (11734310_a_at) / Fold change /veh CNN1 (11734310_a_at) / RFU VPS37D (11726825_at) / Fold change /veh VPS37D (11726825_at) / RFU C10orf10 (11716522_x_at) / Fold change /veh C10orf10 (11716522_x_at) / RFU KIR2DL2 /// KIR2DL4 /// KIR2DL5A /// KIR2DL5B /// KIR2DS1 /// KIR2DS2 /// KIR2DS3 /// KIR2DS4 /// KIR3DL3 /// KIR3DL3 /// KIR3DS1 (11738374_at) / Fold change /veh KIR2DL2 /// KIR2DL4 /// KIR2DL5A /// KIR2DL5B /// KIR2DS1 /// KIR2DS2 /// KIR2DS3 /// KIR2DS4 /// KIR3DL3 /// KIR3DL3 /// KIR3DS1 (11738374_at) / RFU C1QL1 (11718748_at) / Fold change /veh C1QL1 (11718748_at) / RFU TMPRSS4 (11747572_a_at) / Fold change /veh TMPRSS4 (11747572_a_at) / RFU HAMP (11756126_x_at) / Fold change /veh HAMP (11756126_x_at) / RFU RNFT2 (11725882_a_at) / Fold change /veh RNFT2 (11725882_a_at) / RFU NR4A2 (11747474_a_at) / Fold change /veh NR4A2 (11747474_a_at) / RFU ABCC12 (11746883_a_at) / Fold change /veh ABCC12 (11746883_a_at) / RFU TMEM136 (11760407_x_at) / Fold change /veh TMEM136 (11760407_x_at) / RFU CLDN22 /// WWC2 (11732394_at) / Fold change /veh CLDN22 /// WWC2 (11732394_at) / RFU HLA-DPB1 (11760878_x_at) / Fold change /veh HLA-DPB1 (11760878_x_at) / RFU SPINT1 (11716480_a_at) / Fold change /veh SPINT1 (11716480_a_at) / RFU GAP43 (11754022_s_at) / Fold change /veh GAP43 (11754022_s_at) / RFU A4GNT (11735810_at) / Fold change /veh A4GNT (11735810_at) / RFU PRB3 (11715151_x_at) / Fold change /veh PRB3 (11715151_x_at) / RFU TUBB4B (11761932_at) / Fold change /veh TUBB4B (11761932_at) / RFU CAPN14 (11732068_a_at) / Fold change /veh CAPN14 (11732068_a_at) / RFU TMCC2 (11721928_a_at) / Fold change /veh TMCC2 (11721928_a_at) / RFU IRGQ (11745062_a_at) / Fold change /veh IRGQ (11745062_a_at) / RFU FAM174B (11720279_a_at) / Fold change /veh FAM174B (11720279_a_at) / RFU TMPRSS4 (11748680_a_at) / Fold change /veh TMPRSS4 (11748680_a_at) / RFU FAM212B (11763350_a_at) / Fold change /veh FAM212B (11763350_a_at) / RFU PLEKHG5 (11743358_a_at) / Fold change /veh PLEKHG5 (11743358_a_at) / RFU ZSCAN30 (11745921_a_at) / Fold change /veh ZSCAN30 (11745921_a_at) / RFU CMKLR1 (11741424_a_at) / Fold change /veh CMKLR1 (11741424_a_at) / RFU LOC101060620 /// MAPK8IP1 (11723275_at) / Fold change /veh LOC101060620 /// MAPK8IP1 (11723275_at) / RFU SPTSSB (11747773_x_at) / Fold change /veh SPTSSB (11747773_x_at) / RFU PRSS12 (11739890_at) / Fold change /veh PRSS12 (11739890_at) / RFU BIN1 (11741810_x_at) / Fold change /veh BIN1 (11741810_x_at) / RFU WNT11 (11732464_a_at) / Fold change /veh WNT11 (11732464_a_at) / RFU C10orf10 (11716521_a_at) / Fold change /veh C10orf10 (11716521_a_at) / RFU C5orf56 (11738089_at) / Fold change /veh C5orf56 (11738089_at) / RFU CYB561 (11721691_x_at) / Fold change /veh CYB561 (11721691_x_at) / RFU ANKRD19P (11752326_a_at) / Fold change /veh ANKRD19P (11752326_a_at) / RFU OR2T12 /// OR2T33 /// OR2T8 (11738714_s_at) / Fold change /veh OR2T12 /// OR2T33 /// OR2T8 (11738714_s_at) / RFU VCAN (11748164_a_at) / Fold change /veh VCAN (11748164_a_at) / RFU JSRP1 (11732532_at) / Fold change /veh JSRP1 (11732532_at) / RFU KRTAP10-11 (11738290_x_at) / Fold change /veh KRTAP10-11 (11738290_x_at) / RFU MYO3A (11730013_a_at) / Fold change /veh MYO3A (11730013_a_at) / RFU EBF3 (11725865_a_at) / Fold change /veh EBF3 (11725865_a_at) / RFU CAMK2N1 (11719241_x_at) / Fold change /veh CAMK2N1 (11719241_x_at) / RFU C5orf56 (11738088_a_at) / Fold change /veh C5orf56 (11738088_a_at) / RFU OLFML3 (11715873_a_at) / Fold change /veh OLFML3 (11715873_a_at) / RFU LOC100653217 /// NTM (11731650_a_at) / Fold change /veh LOC100653217 /// NTM (11731650_a_at) / RFU MAPK11 (11762145_a_at) / Fold change /veh MAPK11 (11762145_a_at) / RFU FIZ1 (11724087_x_at) / Fold change /veh FIZ1 (11724087_x_at) / RFU OASL (11726364_x_at) / Fold change /veh OASL (11726364_x_at) / RFU SOX15 (11748057_x_at) / Fold change /veh SOX15 (11748057_x_at) / RFU CD79A (11719716_a_at) / Fold change /veh CD79A (11719716_a_at) / RFU HIST1H1D (11736915_at) / Fold change /veh HIST1H1D (11736915_at) / RFU CASKIN2 (11723855_a_at) / Fold change /veh CASKIN2 (11723855_a_at) / RFU LOC730098 (11760151_x_at) / Fold change /veh LOC730098 (11760151_x_at) / RFU OR4N2 (11742367_at) / Fold change /veh OR4N2 (11742367_at) / RFU PRRT2 (11749266_a_at) / Fold change /veh PRRT2 (11749266_a_at) / RFU SNX32 (11753110_a_at) / Fold change /veh SNX32 (11753110_a_at) / RFU CDHR5 (11726645_a_at) / Fold change /veh CDHR5 (11726645_a_at) / RFU RCAN1 (11760418_a_at) / Fold change /veh RCAN1 (11760418_a_at) / RFU FAM167A (11723789_a_at) / Fold change /veh FAM167A (11723789_a_at) / RFU FAM26E (11764081_at) / Fold change /veh FAM26E (11764081_at) / RFU ISYNA1 (11749810_s_at) / Fold change /veh ISYNA1 (11749810_s_at) / RFU ACY1 (11761880_at) / Fold change /veh ACY1 (11761880_at) / RFU 11764098_at / Fold change /veh 11764098_at / RFU SAMD14 (11745864_x_at) / Fold change /veh SAMD14 (11745864_x_at) / RFU NPB (11741838_a_at) / Fold change /veh NPB (11741838_a_at) / RFU TMPRSS6 (11731388_a_at) / Fold change /veh TMPRSS6 (11731388_a_at) / RFU KRTAP10-2 (11738614_at) / Fold change /veh KRTAP10-2 (11738614_at) / RFU ARHGAP8 /// PRR5-ARHGAP8 (11727945_x_at) / Fold change /veh ARHGAP8 /// PRR5-ARHGAP8 (11727945_x_at) / RFU KRTAP5-7 /// NADSYN1 (11734609_at) / Fold change /veh KRTAP5-7 /// NADSYN1 (11734609_at) / RFU RASL12 (11751679_a_at) / Fold change /veh RASL12 (11751679_a_at) / RFU CDKN2B (11736163_a_at) / Fold change /veh CDKN2B (11736163_a_at) / RFU PRF1 (11729649_at) / Fold change /veh PRF1 (11729649_at) / RFU, ZNF638 /// ZNF638-IT1 / Fold change vs veh, ZNF638 /// ZNF638-IT1 / RFU, PANK3 / Fold change vs veh, PANK3 / RFU, SH3YL1 / Fold change vs veh, SH3YL1 / RFU, ZEB2 / Fold change vs veh, ZEB2 / RFU, NRIP1 / Fold change vs veh, NRIP1 / RFU, PTTG1IP / Fold change vs veh, PTTG1IP / RFU, CAPN2 / Fold change vs veh, CAPN2 / RFU, MED14 / Fold change vs veh, MED14 / RFU, SNORA58 / Fold change vs veh, SNORA58 / RFU, C1orf63 / Fold change vs veh, C1orf63 / RFU, LRRFIP1 / Fold change vs veh, LRRFIP1 / RFU, NDUFAF7 / Fold change vs veh, NDUFAF7 / RFU, SLC12A2 / Fold change vs veh, SLC12A2 / RFU, IBTK / Fold change vs veh, IBTK / RFU, ESF1 / Fold change vs veh, ESF1 / Fold change vs veh, TMEM50B / RFU, TAOK1 / Fold change vs veh, TAOK1 / RFU, ACBD3 / Fold change vs veh, ACBD3 / RFU, TMA16 / Fold change vs veh, TMA16 / RFU, RWDD3 / Fold change vs veh, RWDD3 / RFU, BCAT1 / Fold change vs veh, BCAT1 / RFU, EDEM3 / Fold change vs veh, EDEM3 / RFU, TMEM33 / Fold change vs veh, TMEM33 / RFU, WDR75 / Fold change vs veh, WDR75 / RFU, AHCTF1 / Fold change vs veh, AHCTF1 / RFU, TFRC / Fold change vs veh, TFRC / RFU, ZDHHC17 / Fold change vs veh, ZDHHC17 / RFU, NOM1 / Fold change vs veh, NOM1 / RFU, ARL8B / Fold change vs veh, ARL8B / RFU, ZBTB11 / Fold change vs veh, ZBTB11 / RFU, TAMM41 / Fold change vs veh, TAMM41 / RFU, KIAA1704 /// LOC100996395 / Fold change vs veh, KIAA1704 /// LOC100996395 / RFU, ING1 / Fold change vs veh, ING1 / RFU, TRMT61B / Fold change vs veh, TRMT61B / RFU, FUBP3 / Fold change vs veh, FUBP3 / RFU, TP53 / Fold change vs veh, TP53 / RFU, TNKS2 / Fold change vs veh, TNKS2 / RFU, ZFP14 / Fold change vs veh, ZFP14 / RFU, ACTR2 / Fold change vs veh, ACTR2 / RFU, PPP3R1 / Fold change vs veh, PPP3R1 / RFU, PIK3R1 / Fold change vs veh, PIK3R1 / RFU, HNRNPA1 / Fold change vs veh, HNRNPA1 / RFU, RNF170 / Fold change vs veh, RNF170 / RFU, ZNF28 / Fold change vs veh, ZNF28 / RFU, RNGTT / Fold change vs veh, RNGTT / RFU, OGT / Fold change vs veh, OGT / RFU, BRD1 / Fold change vs veh, BRD1 / RFU, MARS / Fold change vs veh, MARS / RFU, ZNF655 / Fold change vs veh, ZNF655 / RFU, FAHD1 / Fold change vs veh, FAHD1 / RFU, BDP1 / Fold change vs veh, BDP1 / RFU, LRRCC1 / Fold change vs veh, LRRCC1 / RFU, ARID1A / Fold change vs veh, ARID1A / RFU, ZNF146 / Fold change vs veh, ZNF146 / RFU, ZNF330 / Fold change vs veh, ZNF330 / RFU, GPN3 / Fold change vs veh, GPN3 / RFU, C9orf123 / Fold change vs veh, C9orf123 / RFU, N4BP2L2 / Fold change vs veh, N4BP2L2 / RFU, ARFIP1 / Fold change vs veh, ARFIP1 / RFU, FAM179B / Fold change vs veh, FAM179B / RFU, BCL10 / Fold change vs veh, BCL10 / RFU, UHRF1BP1L / Fold change vs veh, UHRF1BP1L / RFU, BET1 / Fold change vs veh, BET1 / RFU, CNOT2 / Fold change vs veh, CNOT2 / RFU, ZNF268 / Fold change vs veh, ZNF268 / Fold change vs veh, ZNF507 / RFU, DGCR2 / Fold change vs veh, DGCR2 / RFU, WDSUB1 / Fold change vs veh, WDSUB1 / Fold change vs veh, HSP90B1 /// MIR3652 / RFU, ADSS / Fold change vs veh, ADSS / RFU, GK / Fold change vs veh, GK / RFU, ZNF148 / Fold change vs veh, ZNF148 / RFU, TAF9 / Fold change vs veh, TAF9 / RFU, SLC1A5 / Fold change vs veh, SLC1A5 / RFU, SLMO2 / Fold change vs veh, SLMO2 / RFU, ABCC4 / Fold change vs veh, ABCC4 / RFU, LOC101060439 /// RAP1B / Fold change vs veh, LOC101060439 /// RAP1B / RFU, RFX7 / Fold change vs veh, RFX7 / RFU, GTPBP10 / Fold change vs veh, GTPBP10 / RFU, CNEP1R1 / Fold change vs veh, CNEP1R1 / RFU, BIVM-ERCC5 /// ERCC5 / Fold change vs veh, BIVM-ERCC5 /// ERCC5 / RFU, ILF3 / Fold change vs veh, ILF3 / RFU 11762660_at / Fold change /veh 11762660_at / RFU VCAN (11757783_s_at) / Fold change /veh VCAN (11757783_s_at) / RFU DDX43 (11728927_at) / Fold change /veh DDX43 (11728927_at) / RFU KRT8 (11758188_x_at) / Fold change /veh KRT8 (11758188_x_at) / RFU NKD1 (11759106_at) / Fold change /veh NKD1 (11759106_at) / RFU SRD5A1 (11742802_a_at) / Fold change /veh SRD5A1 (11742802_a_at) / RFU TPSAB1 /// TPSB2 (11721975_s_at) / Fold change /veh TPSAB1 /// TPSB2 (11721975_s_at) / RFU GSTM3 (11746129_a_at) / Fold change /veh GSTM3 (11746129_a_at) / RFU IL23R (11737362_x_at) / Fold change /veh IL23R (11737362_x_at) / RFU TMEM51 (11727254_a_at) / Fold change /veh TMEM51 (11727254_a_at) / RFU PIWIL2 (11732686_x_at) / Fold change /veh PIWIL2 (11732686_x_at) / RFU ORM1 (11744905_x_at) / Fold change /veh ORM1 (11744905_x_at) / RFU CCDC152 (11743942_at) / Fold change /veh CCDC152 (11743942_at) / RFU ECM1 (11717891_a_at) / Fold change /veh ECM1 (11717891_a_at) / RFU IL23R (11748794_a_at) / Fold change /veh IL23R (11748794_a_at) / RFU TNFAIP8L3 (11732012_x_at) / Fold change /veh TNFAIP8L3 (11732012_x_at) / RFU MBOAT4 (11741988_at) / Fold change /veh MBOAT4 (11741988_at) / RFU 11764193_at / Fold change /veh 11764193_at / RFU TMEM53 (11763286_at) / Fold change /veh TMEM53 (11763286_at) / RFU MAGEB2 (11727129_at) / Fold change /veh MAGEB2 (11727129_at) / RFU TMEM200A (11744735_a_at) / Fold change /veh TMEM200A (11744735_a_at) / RFU CCDC152 (11751479_a_at) / Fold change /veh CCDC152 (11751479_a_at) / RFU FAM211A (11726209_a_at) / Fold change /veh FAM211A (11726209_a_at) / RFU RGS16 (11746705_a_at) / Fold change /veh RGS16 (11746705_a_at) / RFU VCAN (11755009_s_at) / Fold change /veh VCAN (11755009_s_at) / RFU RHOB (11743442_s_at) / Fold change /veh RHOB (11743442_s_at) / RFU RGS16 (11720943_a_at) / Fold change /veh RGS16 (11720943_a_at) / RFU RGS16 (11720944_at) / Fold change /veh RGS16 (11720944_at) / RFU, VPS4B / Fold change vs veh, VPS4B / RFU, CREB1 / Fold change vs veh, CREB1 / RFU, DNAJC13 / Fold change vs veh, DNAJC13 / RFU, GNAQ / Fold change vs veh, GNAQ / RFU, CDK5R1 / Fold change vs veh, CDK5R1 / RFU, ZRANB3 / Fold change vs veh, ZRANB3 / RFU, CUL4A / Fold change vs veh, CUL4A / RFU, CCNY / Fold change vs veh, CCNY / RFU, UFL1 / Fold change vs veh, UFL1 / RFU, COG3 / Fold change vs veh, COG3 / RFU, DIAPH2 / Fold change vs veh, DIAPH2 / RFU, SKA2 / Fold change vs veh, SKA2 / RFU, AFF3 / Fold change vs veh, AFF3 / RFU, LMF1 / Fold change vs veh, LMF1 / RFU, IPO11 / Fold change vs veh, IPO11 / RFU, DFFB / Fold change vs veh, DFFB / RFU, FOXP1 / Fold change vs veh, FOXP1 / RFU, CARD8 / Fold change vs veh, CARD8 / RFU, STRN3 / Fold change vs veh, STRN3 / RFU, ADK / Fold change vs veh, ADK / RFU, RASSF2 / Fold change vs veh, RASSF2 / RFU, WIPF1 / Fold change vs veh, WIPF1 / RFU, LARP1B / Fold change vs veh, LARP1B / RFU, RASA1 / Fold change vs veh, RASA1 / RFU, RB1 / Fold change vs veh, RB1 / RFU, PPFIA1 / Fold change vs veh, PPFIA1 / RFU, MAT2A / Fold change vs veh, MAT2A / RFU, CCT5 / Fold change vs veh, CCT5 / RFU, WDR92 / Fold change vs veh, WDR92 / RFU, CUX1 / Fold change vs veh, CUX1 / RFU, TTC7A / Fold change vs veh, TTC7A / RFU, TMEM135 / Fold change vs veh, TMEM135 / RFU, DEPTOR / Fold change vs veh, DEPTOR / RFU, CPM / Fold change vs veh, CPM / RFU, DNAJB6 / Fold change vs veh, DNAJB6 / RFU, CACNA2D3 / Fold change vs veh, CACNA2D3 / RFU, DTX4 / Fold change vs veh, DTX4 / RFU, TFCP2 / Fold change vs veh, TFCP2 / RFU, GMCL1 /// GMCL1P1 / Fold change vs veh, GMCL1 /// GMCL1P1 / RFU, AEBP2 / Fold change vs veh, AEBP2 / RFU, SNHG1 /// SNORD22 /// SNORD25 /// SNORD26 /// SNORD27 /// SNORD28 /// SNORD29 /// SNORD31 / Fold change vs veh, SNHG1 /// SNORD22 /// SNORD25 /// SNORD26 /// SNORD27 /// SNORD28 /// SNORD29 /// SNORD31 / Fold change (Aza/veh), C12orf56 (ProbeSet 11735607_a_at) / Fold change (ACY-1035/veh), C12orf56 (ProbeSet 11735607_a_at) / Fold change (Aza/veh), FGFR1OP (ProbeSet 11751329_s_at) / Fold change (ACY-1035/veh), FGFR1OP (ProbeSet 11751329_s_at) / Fold change (Aza/veh), VPS36 (ProbeSet 11739960_a_at) / Fold change (ACY-1035/veh), VPS36 (ProbeSet 11739960_a_at) / RFU SYPL1 (11715823_x_at) / Fold change /veh SYPL1 (11715823_x_at) / RFU IGFBP7 (11715501_s_at) / Fold change /veh IGFBP7 (11715501_s_at) / RFU REEP3 (11722064_at) / Fold change /veh REEP3 (11722064_at) / RFU IGLL1 (11728026_x_at) / Fold change /veh IGLL1 (11728026_x_at): dose or concentration left out as unconfirmed
Settings: ProbeSet 11745789_a_at; LIST D

Nc1ccc(-c2cccs2)cc1NC(=O)c1ccc2c(c1)cc(C1CC1)n2CCN1CCOCC1 [ACY-1035]
Fold change vs veh, TMEM135: 0.97
